Reference: patent publication US20250387334A1, “Oxyanion azide-benzaldehyde acetal acid-degradable lipids” (The Regents of the University of California, priority 2023, published 2025)

Assays:
[1] = Hydrolysis kinetics of compounds 1-3 and their reduced forms (plate reader, mass spectrum); assay type: physicochemical; settings: for half-life: buffer; for compound detected in the buffer by mass spectrum: 6 hours
Description: Engineering PEG-lipids to rapidly hydrolyze in endosomes has the potential to generate LNPs that have high levels of PEGylation and also transfect cells efficiently^10, 19, 20. The PEG-lipid reduces LNP toxicity and enhances LNP diffusion through tissue. However, LNPs are currently made with 0.5-1.5 mole percent of the PEG-lipid because increasing PEGylation levels beyond these levels can have detrimental effects. For example, the PEG-lipid lowers endosomal disruption by preventing the mixing of the ionizable lipid with endosomal lipids^20, 21 and causes the formation of anti-PEG antibodies^22. LNPs made with acid-degradable PEG-lipids should transfect cells efficiently even at high levels of PEGylation because they will hydrolyze off the LNP after endocytosis and will be released from the LNP surface. In addition, the immunogenicity of PEG dramatically increases after conjugation to lipids, and acid-degradable PEG-lipids may also have lower immunogenicity than traditional PEG-lipids because they will rapidly generate free PEG after endocytosis^22, 23.

[2] = Acid-catalyzed hydrolysis kinetics of model azido-acetal 4 and its reduced form 5; assay type: physicochemical
Description: RD-LNPs are based upon the rapid hydrolysis of the azido-acetal linker at pH 6.0. We synthesized the model azido-acetal 4 and measured its acid-catalyzed hydrolysis rate before and after reduction to investigate whether reductive activation accelerates the hydrolysis kinetics of an azido-acetal. […] The azido-acetal has the stability needed for performing multi-step organic reactions and should enable the development of new materials that are hypersensitive to acidic conditions. […] In addition, the reduced azido-acetal hydrolyzes with a t1/2<30 minutes at pH 6.0 and has the hydrolysis kinetics needed to degrade in endosomes before trafficking to lysosomes occurs4. The two-step hydrolysis mechanism of the azido-acetal overcomes the stability problems preventing the development of rapidly hydrolyzing lipids and provides a general strategy for developing lipids and materials that rapidly hydrolyze at endosomal pHs.

[3] = DTT reduction kinetics of compound 4; assay type: physicochemical
[4] = IL-22 protein; cited from earlier work

## COCCOCCOCCOCCOCCOCCOCCOCCOCCOCCOCCOCCOCCOCCOCCOCCOCCOCCOCCOCCOCCOCCOCCOCCOCCOCCOCCOCCOCCOCCOCCOCCOCCOCCOCCOCCOCCOCCOCCOCCOCCOCCOCCOCCOCCOC(=O)NCCOC(OCCNC(=O)O[C@H]1CC[C@@]2(C)C(=CC[C@H]3[C@@H]4CC[C@H]([C@H](C)CCCC(C)C)[C@@]4(C)CC[C@@H]32)C1)c1ccc(N=[N+]=[N-])cc1 (some centres unmarked) [Compound 1]
[1]; pH 4.0, read-out: t1/2 (minute) pH 4.0
  half-life: 54.8 ± 3.89 min
[1]; pH 5.0, read-out: t1/2 (minute) pH 5.0
  half-life: 192 ± 28.3 min
[1]; pH 6.0, cell prints day, read-out: t1/2 pH 6.0
  half-life: 4280 min
[1]; pH 7.4, cell prints day, read-out: t1/2 pH 7.4 (converted)
  half-life: 28500 min

## CC(C)CCC[C@@H](C)[C@H]1CC[C@H]2[C@@H]3CC=C4C[C@@H](OC(=O)NCCOC(OCC[N+](C)(C)C)c5ccc(N=[N+]=[N-])cc5)CC[C@]4(C)[C@H]3CC[C@]12C (some centres unmarked) [Compound 3]
[1]; pH 4 and pH 5, 37° C.
  compound detected in the buffer by mass spectrum: nearly no compound 3 was detected
[1]; pH 6 and pH 7.4, 37° C.
  compound detected in the buffer by mass spectrum: a large amount

## COC(=O)NCCOC(OCCNC(=O)OC)c1ccc(N=[N+]=[N-])cc1 [Compound 4]
[2]; buffer, pH 4
  half-life: 0.0567 ± 0.00133 h
[2]; buffer, pH 5
  half-life: 0.619 ± 0.0115 h
[2]; buffer, pH 6
  half-life: 8.57 ± 0.117 h
[2]; pH 7.4
  half-life: 507 h
  predicted hydrolysis half-life: 21 days
[2]; pH 7.4, 6.5 hours
  hydrolysis after 6.5 hours: under 1%
[3]; 10 mM DTT solution (chemical reduction), read-out: DTT reduction t1/2 (minute) 10 mM
  half-life: 26.4 ± 3.37 min
[3]; 25 mM DTT solution (chemical reduction), read-out: DTT reduction t1/2 (minute) 25 mM
  half-life: 14.2 ± 0.5 min
[3]; 50 mM DTT solution (chemical reduction), read-out: DTT reduction t1/2 (minute) 50 mM
  half-life: 11.9 ± 1.85 min
[3]; 100 mM DTT solution (chemical reduction), read-out: DTT reduction t1/2 (minute) 100 mM
  half-life: 7.21 ± 0.11 min

## IL-22: soluble IL-22 protein, cytokine
[4]
  circulation half-life: under 2 hours
